What follows are compounds tested on Beta-TC6 (assay: Increase in insulin release in mouse BetaTC6 cells assessed as relative insulin release activity at 10 uM incubated for 2 to 4 hrs by FRET based HTRF assay relative to sunitinib).
Format: functional

Compound	Activity
CN1CCN(C(=O)c2cccc(-c3cnc4cnc(-c5ccccc5Oc5ccccc5)cn34)c2)CC1	20%
Cn1cc(-c2cnc3cnc(-c4ccncc4)cn23)cn1	20%
Cc1cccc(-c2cnc3cccnn23)c1	10%
NC(=O)c1cccc(-c2ccc3nnc(-c4cscn4)n3c2)c1	20%
c1cc(-c2cn3c(-c4ccc5c(c4)OCO5)cnc3cn2)cs1	50%
O=C(O)CCc1ccc(-c2cnc3cnc(-c4ccccc4CO)cn23)cc1	20%
Clc1ccccc1-c1ccc2nnc(-c3cccnc3)n2c1	50%
CC(=O)c1cccc(-c2cnc3cnc(-c4cccnc4)cn23)c1	20%
COc1ccc(-c2cnc3cnc(-c4ccc(N)nc4)cn23)cc1	20%
N#Cc1ccc(-c2cnc3cnc(-c4ccc(Cl)cc4)cn23)cc1	50%
N#Cc1cccc(-c2cnc3cccnn23)c1	20%
CN(C)c1ccc(-c2ccc3nnc(-c4cccnc4)n3c2)cc1	50%
Clc1ccc(-c2cnc3cnc(-c4cccs4)cn23)cc1	20%
COc1ccc(CNc2ccc3ncc(-c4ccc(OC)cc4OC)n3n2)cc1	10%
N#Cc1ccc(-c2cnc3cnc(-c4cccs4)cn23)cc1	20%
C(=C\c1cn2c(-c3cccs3)cnc2cn1)/c1ccccc1	20%
c1ccc(-c2cnc3cnc(-c4cccs4)cn23)cc1	20%
c1ccc(-c2cn3c(-c4ccc5c(c4)OCO5)cnc3cn2)cc1	50%
c1csc(-c2cn3c(-c4ccc5c(c4)OCO5)cnc3cn2)c1	50%
c1cncc(-c2cnc3cnc(-c4cc5ccccc5s4)cn23)c1	20%
COc1ccc(-c2cnc3cnc(-c4cccc(C(N)=O)c4)cn23)cn1	20%
COc1ccc(-c2nnc3ccc(C#Cc4ccncc4)cn23)cc1OC	50%

Compound	Activity
CC(C)(C)c1ccc(-c2cnc3cnc(-c4ccc(N)nc4)cn23)cc1	10%
O=C(Nc1cnc2cnc(-c3ccc4ccccc4c3)cn12)C1CCOC1 (centres undefined)	10%
O=C(c1ccc(-c2ccc3nnc(-c4cccc(C(F)(F)F)c4)n3c2)cc1)N1CCOCC1	20%
Cc1ccccc1-c1nnc2ccc(-c3ccc(C(N)=O)cc3)cn12	20%
COc1ccc(-c2ccc3nnc(-c4ccc(OCCCN(C)C)cc4)n3c2)cc1OC	50%
Cn1cc(-c2cn3c(-c4ccc(O)cc4)cnc3cn2)cn1	20%
Cc1cc(-c2cn3c(-c4ccc5ncccc5c4)cnc3cn2)cc(C)c1O	20%
COc1ccc(-c2cnc3ccc(NCCCO)nn23)cc1	10%
CN(C)CCNC(=O)c1cccc(-c2ccc3nnc(-c4ccc5nccnc5c4)n3c2)c1	>=100%
O=C(NCCO)c1cccc(-c2cn3c(-c4cccs4)cnc3cn2)c1	20%
COc1cc(-c2cn3c(-c4ccc5ncccc5c4)cnc3cn2)cc(OC)c1OC	20%
CCCNc1ccc2ncc(-c3cccc(/C=C/C(=O)O)c3)n2n1	10%
CC(=O)Nc1ccc(-c2ccc3nnc(-c4cccc(Cl)c4)n3c2)cc1	20%
Cc1ccccc1-c1cnc2cnc(-c3cccc(F)c3)cn12	10%
CN(C)C(=O)c1cccc(-c2cn3c(-c4ccc(N(C)C)cc4)cnc3cn2)c1	20%
c1cnc2ccc(-c3ccc4nnc(-c5cscn5)n4c3)cc2c1	50%
CN(C)CCCOc1ccc(-c2nnc3ccc(C#Cc4ccc(C(=O)N(C)C)cc4)cn23)cc1	20%
CN(C)c1ccc(-c2cnc3cnc(-c4cccc(C(=O)NCCO)c4)cn23)cc1	20%
CN(C)c1ccc(-c2cnc3cnc(-c4cccc(C(N)=O)c4)cn23)cc1	20%
c1ccc(Cn2cc(-c3cn4c(-c5ccc6c(c5)OCO6)cnc4cn3)cn2)cc1	50%
CN(C)c1ccc(-c2cnc3cnc(-c4ccc(CO)cc4)cn23)cc1	50%
CCOc1cccc(-c2cn3c(-c4ccc(CCC(=O)O)cc4)cnc3cn2)c1	>=100%

Compound	Activity
COc1ccc(-c2cnc3ccc(N[C@H](CO)C(C)C)nn23)c(OC)c1	20%
Cn1ccc2cc(-c3cn4c(-c5ccc6ncccc6c5)cnc4cn3)ccc21	>=100%
O=C(NCCO)c1ccc(-c2cnc3cccnn23)cc1	10%
COc1ccc(-c2cn3c(-c4cccc(O)c4)cnc3cn2)cn1	20%
Oc1ccc(-c2cn3c(-c4cccs4)cnc3cn2)cc1	50%
c1ccc(Oc2ccccc2-c2cn3c(-c4ccncc4)cnc3cn2)cc1	20%
c1coc(-c2cn3c(-c4ccsc4)cnc3cn2)c1	20%
Nc1cccc(-c2cn3c(NC(=O)Cc4ccc(F)c(F)c4)cnc3cn2)c1	10%
O=C(NC1CC1)c1ccc(-c2cnc3cccnn23)cc1	10%
c1csc(-c2cnc3cnc(-c4ccsc4)cn23)c1	50%
COc1cc(-c2cnc3cnc(-c4cnn(C)c4)cn23)ccc1O	50%
COc1ccc(-c2ccc3nnc(-c4ccncc4)n3c2)cc1OC	20%
Cc1cc(-c2cnc3cccnn23)cc(C)c1O	10%
COc1cc(-c2nnc3ccc(-c4ccccc4C)cn23)ccc1O	50%
Oc1cccc(-c2cnc3cnc(-c4cccs4)cn23)c1	20%
CC(C(=O)Nc1cnc2cnc(-c3cccc([N+](=O)[O-])c3)cn12)c1ccccc1 (centres undefined)	20%
CC(=O)Nc1ccc(-c2cnc3ccc(-c4ccc(N5CCOCC5)cc4)nn23)cc1	>=100%
C(=C\c1cnc2cccnn12)/c1ccccc1	20%
OC1CCC(Nc2ccc3ncc(Br)n3n2)CC1 (centres undefined)	10%
FC(F)(F)c1cccc(-c2cnc3ccc(C4CC4)nn23)c1	10%
O=C(Nc1cnc2cnc(-c3cnn(Cc4ccccc4)c3)cn12)C1CCC1	20%
COc1cc(-c2cn3c(-c4ccccc4Cl)cnc3cn2)ccc1O	20%

Compound	Activity
Nc1ccc(-c2ccc3nnc(-c4cccc(C(F)(F)F)c4)n3c2)cn1	20%
Oc1cccc(-c2cnc3cnc(-c4ccc(Cl)cc4)cn23)c1	20%
COc1cccc(-c2ccc3ncc(-c4cccc(Cl)c4)n3n2)c1	10%
Cn1ccc2cc(-c3cnc4cnc(-c5cccc(C(=O)NCCO)c5)cn34)ccc21	20%
c1cc(-c2nnc3ccc(-c4ccc(N5CCOCC5)cc4)cn23)ccn1	20%
O=C(Cc1ccsc1)Nc1cnc2cnc(-c3ccccc3F)cn12	10%
OCc1ccc(-c2cnc3cnc(-c4ccco4)cn23)cc1	20%
CC(C)Oc1cccc(-c2cn3c(-c4cccc(CO)c4)cnc3cn2)c1	20%
CS(=O)(=O)Nc1cccc(-c2cn3c(-c4ccc(Oc5ccccc5)cc4)cnc3cn2)c1	20%
COc1cc(OC)cc(-c2cn3c(-c4cccc(N(C)C)c4)cnc3cn2)c1	20%
FC(F)(F)Oc1ccc(-c2cn3c(-c4cccs4)cnc3cn2)cc1	20%
c1ccc(-c2nnc3ccc(-c4ccc5c(c4)OCO5)cn23)cc1	50%
CN(C)CCNC(=O)c1ccc(-c2cn3c(-c4ccc(N(C)C)cc4)cnc3cn2)cc1	50%
CN1CCN(C(=O)c2cccc(-c3cnc4cnc(-c5ccc(CNc6ccccc6)cc5)cn34)c2)CC1	10%
N#Cc1ccc(-c2cnc3cnc(-c4ccccc4)cn23)cc1	20%
OCc1ccc(-c2ccc3ncc(-c4cccnc4)n3n2)cc1	20%
CNC(=O)c1ccc(-c2ccc3nnc(-c4ccc(OCCCN(C)C)cc4)n3c2)cc1	20%
CC(C)c1cccc(-c2ccc3nnc(-c4cccnc4)n3c2)c1	50%
CN(C)CCCNC(=O)c1ccc(-c2ccc3nnc(-c4cccc(C(F)(F)F)c4)n3c2)cc1	20%
Nc1ccc(-c2cn3c(-c4cccs4)cnc3cn2)cn1	20%
Oc1cccc(-c2ccc3nnc(-c4ccccn4)n3c2)c1	50%
CCC(CO)Nc1ccc2ncc(-c3ccccc3Cl)n2n1 (centres undefined)	10%

Compound	Activity
FC(F)(F)c1cccc(-c2cnc3ccc(-c4ccncc4)nn23)c1	20%
CS(=O)(=O)Nc1cccc(-c2ccc3ncc(-c4ccncc4)n3n2)c1	20%
OCc1ccc(-c2cn3c(-c4cccs4)cnc3cn2)cc1	20%
Clc1cccc(-c2ccc3nnc(-c4ccc5c(c4)OCO5)n3c2)c1	20%
FC(F)(F)Oc1cccc(-c2cnc3cnc(-c4cccnc4)cn23)c1	20%
COc1cncc(-c2cnc3ccc(Cc4ccc(F)cc4)nn23)c1	20%
CN(C)CCCOc1ccc(-c2nnc3ccc(-c4ccc(Cl)cc4)cn23)cc1	20%
c1cncc(CCNc2ccc3ncc(-c4ccc(N5CCOCC5)cc4)n3n2)c1	50%
CN(C)c1cccc(-c2ccc3nnc(-c4cscn4)n3c2)c1	50%
CN(C)c1ccc(-c2cnc3cnc(-c4ccc(NCCN5CCOCC5)nc4)cn23)cc1	50%
CN1CCN(C(=O)c2cccc(-c3ccc4nnc(-c5ccc6nccnc6c5)n4c3)c2)CC1	20%
c1cnc2cc(-c3nnc4ccc(-c5ccoc5)cn34)ccc2n1	50%
NC(=O)c1ccc(-c2ccc3ncc(-c4cccc(OC(F)(F)F)c4)n3n2)cc1	20%
Cc1ccccc1-c1cn2c(-c3ccc4c(c3)OCO4)cnc2cn1	20%
CN(C)CCCOc1ccc(-c2cn3c(-c4ccc(N(C)C)cc4)cnc3cn2)cn1	50%
COc1cc(OC)cc(-c2cnc3cnc(-c4ccccc4N(C)C)cn23)c1	20%
COc1cccc(-c2cn3c(NC(=O)Cc4ccsc4)cnc3cn2)c1	20%
O=C(NC1CC1)c1ccc(-c2cn3c(-c4ccccc4)cnc3cn2)cc1	20%
N#Cc1ccc(-c2cnc3cnc(-c4ccsc4)cn23)cc1	20%
COc1cc(-c2ccc3nnc(-c4ccc5nccnc5c4)n3c2)ccc1O	50%
COc1cc(-c2cnc3cnc(-c4ccc(NCCN5CCOCC5)nc4)cn23)ccc1O	20%

Source: ChEMBL document CHEMBL3727361, “Nitrogen bicyclic compounds as inhibitors for Scyl1 and Grk5” (2014)
